Measurements reported in US10869924B2, “PD-L1 antagonist combination treatments” (MERCK PATENT GMBH, priority 2015, dated 2020).

Columns and labels:
[1] = system: B16F10 melanoma; experiment: Subcutaneous B16F10 melanoma model, anti-4-1BB and avelumab (Example 3); type: in vivo; conditions: anti-4-1BB 0.1 mg/mL, avelumab 1 mg/mL, 0.2 mL per mouse ip, 3 doses 3 to 4 days apart, C57BL/6 mice
Protocol: (§1) Six (6)- to 8-week old female C57BL/6 mice were purchased from the Jackson Laboratories. All animals were housed in a pathogen free vivarium facility at Rinat and experiments were conducted according to the protocols in accordance with the Institutional Animal Care and Use Committee (IACUC) guidelines.
(§2) The B16F10 melanoma cell line was purchased from American Type Culture Collection (ATCC). The MC38 colon carcinoma cell line was kindly provided by Dr. Antoni Ribas at University of California, Los Angeles, Calif. Cells were cultured in Dulbecco's Modified Eagle's Medium (DMEM) supplemented with 10% fetal bovine serum (FBS), 2 mM L-glutamine at 37° C. in 5% carbon dioxide (CO2), and IMPACT-tested for pathogens at Research Animal Diagnostic Laboratory (RADIL) (Columbia, Mo.). Pathogen-free cells growing in an exponential growth phase were harvested and used for tumor inoculation.
(§3) Therapeutic mouse anti-mouse 4-1BB mAb (mouse immunoglobulin G1 [mIgG1]), derived from the parental clone MAB9371 (R&D Systems), was prepared in-house. Avelumab was provided by Merck Serono. Isotype control mIgG1 (clone: MOPC-21) was purchased from BioXcell. Human IgG1 was prepared in-house. Anti-4-1BB and avelumab were diluted to concentrations of 0.1 mg/mL and 1 mg/mL, respectively, in phosphate buffered saline (PBS) (Life Technologies), and dosed at 0.2 mL per mouse intraperitoneally (ip) for 3 doses 3 to 4 days apart.
(§4) C57BL/6 mice were inoculated subcutaneously at the right flank with 0.2×10^6 B16F10 or 0.5×10^6 MC38 cells in 0.1 mL of serum-free DMEM. When tumors reached target size, mice were randomized into treatment groups. Treatment was started on the same day as randomization. Tumor size was measured twice weekly in 2 dimensions using a caliper, and the volume was expressed in cubic millimeters using the formula: V=0.5 L×W^2 where L is the longest diameter of the tumor and W is the diameter perpendicular to L. Body weight was recorded weekly.
(§5) Results were expressed as mean±SEM. Statistical analyses were performed using GraphPad Prism 6.0. One-way or 2-way ANOVA was applied to compare the statistical differences among multiple groups relative to the isotype control. P<0.05 was considered as significant difference.
Two murine models were used to evaluate the therapeutic efficacy of anti-4-1BB in combination with avelumab. In the B16F10 melanoma model, the average starting tumor size was 67 to 78 mm^3 (range 44 to 114 mm^3; n=7 animals per group) (Table 5). By Day 26 post tumor inoculation, the tumors for isotype, anti-4-1BB alone, and avelumab alone groups reached an average of 1206±397 mm^3, 1979±425 mm^3, and 2112±429 mm^3, respectively (Table 5). By contrast, dramatic tumor suppression (average of 341±146 mm^3) was observed when animals were administered with anti-4-1BB and avelumab concurrently (p<0.0001 vs single agent alone groups) (Table 5).

[2] = system: MC38 colon carcinoma; experiment: Subcutaneous MC38 colon carcinoma model, anti-4-1BB and avelumab (Example 3); type: in vivo; conditions: anti-4-1BB 0.1 mg/mL, avelumab 1 mg/mL, 0.2 mL per mouse ip, 3 doses 3 to 4 days apart, C57BL/6 mice
Protocol: as §1, §2, §3, §4, §5
In the MC38 colon carcinoma model, the average starting tumor size was approximately 60 mm^3 (range 41-92 mm^3; n=10 animals per group) (Table 6). At the end of study (Day 23 post tumor implantation), the average tumor volumes of isotype, anti-4-1BB alone, avelumab alone, and anti-4-1BB antibody/avelumab combination groups were 1177±252 mm^3, 1093±183 mm^3, 901±206 mm^3, and 530±190 mm^3, respectively (Table 6). The reduction in tumor size by the combination treatment was significant, compared to the isotype control (p<0.001) and 4-1BB alone groups (p<0.01), but not to the avelumab group (p>0.05) (Table 6).

[3] = system: MC38 colon carcinoma; experiment: Subcutaneous MC38 colon carcinoma model, avelumab, anti-4-1BB and anti-M-CSF (Example 5); type: in vivo, mouse; conditions: anti-4-1BB 1 mg/kg, anti-M-CSF 15 mg/kg, Avelumab 10 mg/kg, ip, 3 doses 3 to 4 days apart, C57BL/6 mice
Protocol: as §1
as §2, with “The” for “The B16F10 melanoma cell line was purchased from American Type Culture Collection (ATCC). The”, “L glutamine” for “L-glutamine”
Therapeutic mouse anti-mouse 4-1BB mAb (mouse immunoglobulin G1 [mIgG1]), derived from the parental clone MAB9371 (R&D Systems), was prepared in-house. Avelumab was provided by Merck Serono. Rat anti-mouse M-CSF (clone 5A1), rat IgG1 (clone HRPN) and mIgG1 (clone: MOPC-21) isotype controls were purchased from BioXcell. Human IgG1 isotype was prepared in-house. Anti-4-1BB, avelumab and anti-M-CSF mAbs were diluted to concentrations of 0.1 mg/mL and 1 mg/mL, and 1.5 mg/mL, respectively, in phosphate buffered saline (PBS) (Life Technologies), and dosed at 0.2 mL per mouse intraperitoneally (ip) for 3 doses 3 to 4 days apart.
C57BL/6 mice were inoculated subcutaneously at the right flank with 0.5-1×10^6 MC38 cells in 0.1 mL of DMEM. When tumors reached an average of ˜60 mm^3 (range 41-93 mm^3), mice were randomized into groups of 10 animals per group, and treatment was started at the same day. Tumor size was measured in two dimensions using a caliper, and the volume was expressed in mm^3 using the formula: V=0.5 L×W^2 where L and W are the long and short diameters of the tumor, respectively. Body weight was recorded weekly.
Results were expressed as mean±SEM (Table 8). Statistical analyses were performed using GraphPad Prism 6.0. One-way or two-way ANOVA was applied to compare the statistical differences among multiple groups relative to isotype controls. P<0.05 was considered as significant difference.

[4] = in vivo; cited from earlier work

## Avelumab: fully human mAb of the IgG1 isotype that specifically targets and blocks PD-L1
[1]; Day 13 post tumor inoculation (starting tumor size)
  Tumor Measurements of Subcutaneous B16F10 Melanoma, Mean tumor volume: 78 mm^3
[1]; Day 17 post tumor inoculation
  Tumor Measurements of Subcutaneous B16F10 Melanoma, Mean tumor volume: 327 mm^3
[1]; Day 20 post tumor inoculation
  Tumor Measurements of Subcutaneous B16F10 Melanoma, Mean tumor volume: 654 mm^3
[1]; Day 24 post tumor inoculation
  Tumor Measurements of Subcutaneous B16F10 Melanoma, Mean tumor volume: 1304 mm^3
[1]; Day 26 post tumor inoculation
  Tumor Measurements of Subcutaneous B16F10 Melanoma, Mean tumor volume: 2112 mm^3
[1]; Day 26 post tumor inoculation, listed as avelumab
  Tumor Measurements of Subcutaneous B16F10 Melanoma, Mean tumor volume: 2112±429 mm^3
[2]; Day 7 post tumor implantation (starting tumor size)
  Tumor Measurements of Subcutaneous MC38 Colon Carcinoma, Mean tumor volume: 63 mm^3
[2]; Day 10 post tumor implantation
  Tumor Measurements of Subcutaneous MC38 Colon Carcinoma, Mean tumor volume: 127 mm^3
[2]; Day 14 post tumor implantation
  Tumor Measurements of Subcutaneous MC38 Colon Carcinoma, Mean tumor volume: 254 mm^3
[2]; Day 16 post tumor implantation
  Tumor Measurements of Subcutaneous MC38 Colon Carcinoma, Mean tumor volume: 384 mm^3
[2]; Day 18 post tumor implantation
  Tumor Measurements of Subcutaneous MC38 Colon Carcinoma, Mean tumor volume: 523 mm^3
[2]; Day 21 post tumor implantation
  Tumor Measurements of Subcutaneous MC38 Colon Carcinoma, Mean tumor volume: 714 mm^3
[2]; Day 23 post tumor implantation (end of study)
  Tumor Measurements of Subcutaneous MC38 Colon Carcinoma, Mean tumor volume: 901 mm^3
[2]; Day 23 post tumor implantation (end of study), listed as avelumab
  Tumor Measurements of Subcutaneous MC38 Colon Carcinoma, Mean tumor volume: 901±206 mm^3
[3]; Day 7 post-tumor inoculation (start of treatment)
  Mean Tumor Size: 63 mm^3
[3]; Day 10 post-tumor inoculation
  Mean Tumor Size: 127 mm^3
[3]; Day 14 post-tumor inoculation
  Mean Tumor Size: 254 mm^3
[3]; Day 16 post-tumor inoculation
  Mean Tumor Size: 384 mm^3
[3]; Day 18 post-tumor inoculation
  Mean Tumor Size: 523 mm^3
[3]; Day 21 post-tumor inoculation
  Mean Tumor Size: 714 mm^3
[3]; Day 23 post-tumor inoculation
  Mean Tumor Size: 901 mm^3
[4]
  half-life: 72 to 120 h
